Values of other authors as cited in US6773669B1, “Flow electroporation chamber and method” (Maxcyte, Inc., priority 1995, dated 2004).

Columns and labels:
[1] = experimental animals; DPG or precursors of DPG; transient
hemoglobin [2] = molecular target: T1, hemoglobin (Homo sapiens, UniProt P68871); settings: higher than DPG; Benesch et al. 1977
hemoglobin [3] = molecular target: T1, hemoglobin; settings: pH 7.4, 37 degrees C; J. Biol. Chem. 1975

T1 sequence (P68871 2-147 limits assumed): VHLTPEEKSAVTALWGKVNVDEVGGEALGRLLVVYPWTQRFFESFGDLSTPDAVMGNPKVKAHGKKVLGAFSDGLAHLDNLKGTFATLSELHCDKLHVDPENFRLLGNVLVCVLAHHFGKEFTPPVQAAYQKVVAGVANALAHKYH
T1 sequence (P69905 2-142 partner limits assumed): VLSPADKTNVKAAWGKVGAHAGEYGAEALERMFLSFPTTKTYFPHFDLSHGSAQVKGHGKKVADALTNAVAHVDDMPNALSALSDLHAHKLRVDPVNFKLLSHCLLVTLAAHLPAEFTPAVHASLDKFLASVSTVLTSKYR

SMILES	duration of elevation of oxygen deposition [1] [h]	affinity to hemoglobin relative to DPG (hemoglobin [2]) [fold]	P50 of hemoglobin (hemoglobin [3]) [mm Hg]
O=C(O)C(COP(=O)(O)O)OP(=O)(O)O (stereo not drawn) [DPG, 2,3-diphosphoglycerate]	6 to 12	–	–
O=P(O)(O)O[C@H]1[C@H](OP(=O)(O)O)[C@@H](OP(=O)(O)O)[C@H](OP(=O)(O)O)[C@@H](OP(=O)(O)O)[C@H]1OP(=O)(O)O [IHP, inositol hexaphosphate]	–	1000	≤ 96.4
